Test results: patent US11993604B2, “Substituted pyrazolo[4,3-H]quinazolines as protein kinase inhibitors” (SHENGKE PHARMACEUTICALS (JIANGSU) LTD., priority 2017, dated 2024)
Structures can show the parent of a compound that is named as a salt.

Assays:
[1] = target: T1, recombinant CDK4/Cyclin D1 (Homo sapiens, UniProt P11802); experiment: Biochemical kinase inhibition test, CDK4/Cyclin D1 (32P-ATP, retinoblastoma protein substrate); conditions: three-fold serial dilution from 10 μM; 10 μM ATP; read-out: CDK4/D1 (nM), enzyme inhibitory activity IC50
T1 construct: purchased Life Technologies PV4204
T1 sequence (P11802 whole entry): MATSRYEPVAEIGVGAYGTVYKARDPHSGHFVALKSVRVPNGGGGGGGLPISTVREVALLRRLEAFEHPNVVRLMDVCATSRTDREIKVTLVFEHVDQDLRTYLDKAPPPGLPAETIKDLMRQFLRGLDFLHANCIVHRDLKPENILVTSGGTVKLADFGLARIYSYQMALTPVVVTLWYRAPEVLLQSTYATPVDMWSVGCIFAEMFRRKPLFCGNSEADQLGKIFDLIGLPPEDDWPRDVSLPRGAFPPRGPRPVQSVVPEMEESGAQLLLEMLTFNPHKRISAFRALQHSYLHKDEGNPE
T1 sequence (P24385 whole entry partner): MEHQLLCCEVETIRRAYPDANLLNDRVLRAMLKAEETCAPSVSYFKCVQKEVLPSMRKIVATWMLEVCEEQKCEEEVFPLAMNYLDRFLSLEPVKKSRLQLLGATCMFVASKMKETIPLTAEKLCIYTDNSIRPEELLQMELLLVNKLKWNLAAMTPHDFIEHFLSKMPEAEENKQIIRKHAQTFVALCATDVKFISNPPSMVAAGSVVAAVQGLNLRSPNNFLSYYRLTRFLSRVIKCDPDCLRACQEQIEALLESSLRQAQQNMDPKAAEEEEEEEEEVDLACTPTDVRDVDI

CDK6/cyclin D1 = CDK6/cyclin D1 (Homo sapiens, UniProt Q00534); experiment: Biochemical kinase inhibition test, CDK6/cyclin D1 (similar method); conditions: for IC50: three-fold serial dilution from 10 μM, 10 μM ATP, read-out: CDK6/D1 (nM), enzyme inhibitory activity IC50; for selectivity for CDK6/cyclin D1 relative to CDK4/cyclin D1 (enzyme inhibitory activity): CDK6/cyclin D1 versus CDK4/cyclin D1
CDK6/cyclin D1, sequence (Q00534 whole entry, species assumed): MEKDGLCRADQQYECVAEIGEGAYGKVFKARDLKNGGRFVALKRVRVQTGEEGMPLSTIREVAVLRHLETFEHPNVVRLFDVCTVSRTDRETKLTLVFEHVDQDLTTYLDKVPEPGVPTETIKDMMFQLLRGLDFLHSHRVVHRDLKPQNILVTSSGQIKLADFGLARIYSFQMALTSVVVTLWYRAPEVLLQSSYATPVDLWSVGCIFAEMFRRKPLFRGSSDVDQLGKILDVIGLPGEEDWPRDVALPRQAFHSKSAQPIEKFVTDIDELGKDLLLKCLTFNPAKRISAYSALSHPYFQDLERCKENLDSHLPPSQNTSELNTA
CDK6/cyclin D1, sequence (P24385 whole entry partner, species assumed): as the sequence (P24385 whole entry partner) above
Experimental: Potency determination of biochemical kinase inhibition test. Kinase activity test and IC50 determination. Firstly, 10 ng of recombinant CDK4/Cyclin D1 (Life Technologies PV4204) was diluted in kinase buffer (20 mM Tris pH 7.5, 10 mM MgCl2, 0.01% NP-40, 2 mM DTT), and was incubated with inhibitors at the indicated concentration at room temperature for 30 minutes. The kinase reaction was initiated by adding […] (1.5 μM) of recombinant retinoblastoma protein, 5 μM ATP and 10μ Ci γ-32P-ATP. The reaction was incubated at 30° C. for 20 minutes, and was terminated by adding 2× Laemmli sample buffer, heated at 95° C. for three minutes, and the resulting solution was dissolved with 12% acrylamide SDS-PAGE and autoradiographed. A densitometer (Bio-Rad) was used to quantify the corresponding phosphorylated substrate protein bands. The resulting density values were plotted as a function of the log drug concentration using Prism 4 Graphpad software. IC50 values were determined by plotting a non-linear regression curve with a variable slope.
The inhibitory activity of the compounds disclosed herein against CDK6/cyclin D1 was tested by a similar method.
The compounds were tested in a three-fold serial dilution from the starting concentration of 10 μM, over 10-fold of IC50. The control compound, staurosporine, was tested in a four-fold serial dilution from the starting concentration of 20 μM, over 10-fold of IC50. These reactions took place in the presence of 10 μM ATP.

Structure (SMILES) | IC50 [1] [nM] | IC50 (CDK6/cyclin D1) [nM] | selectivity for CDK6/cyclin D1 relative to CDK4/cyclin D1 (enzyme inhibitory activity) (CDK6/cyclin D1)
CC(C)n1ncc2ccc3cnc(Nc4ccc(N5CCS(=O)(=O)CC5)cn4)nc3c21 [Compound I-28] | 10 to 20 | 10 to 20 | –
COc1ccc2cc(Nc3ncc4ccc5cnn(C(C)C)c5c4n3)ccc2n1 [Compound I-32] | 20 to 50 | 20 to 50 | –
Cc1cc2cnc(Nc3ccc(N4CCOCC4)cn3)nc2c2c1cnn2C(C)C [Compound I-70] | 10 to 20 | 10 to 20 | –
CCn1ncc2ccc3cnc(Nc4cc(C)c(N5CCOCC5)cn4)nc3c21 [Compound I-52] | 10 to 20 | 10 to 20 | –
CC(C)n1ncc2ccc3cnc(Nc4cc(F)c(N5CCNCC5)cn4)nc3c21 [Compound I-10] | 5 to 10 | 10 to 20 | –
CCN1CCN(c2ccc(Nc3ncc4cc(C#N)c5cnn(C(C)C)c5c4n3)nc2)CC1 [Compound I-73] | 10 to 20 | 1 to 5 | about 3 times
Cc1nc(Nc2ncc3ccc4cnn(C(C)C)c4c3n2)ccc1N1CCNCC1 [Compound I-2] | 1 to 5 | 1 to 5 | –
CCN1CCN(c2ccc(Nc3ncc4ccc5cnn(C6CC6)c5c4n3)nc2)CC1 [Compound I-56] | 10 to 20 | 5 to 10 | about 3 times
CC(C)n1ncc2ccc3cnc(Nc4ccc(N5C[C@@H](C)O[C@@H](C)C5)cn4)nc3c21 [Compound I-17] | 5 to 10 | 5 to 10 | –
CC(C)n1ncc2ccc3cnc(Nc4ccc(N5CCNCC5)cn4)nc3c21 [Compound I-1, 1-isopropyl-N-(5-(piperazin-1-yl)pyridin-2-yl)-1H-pyrazolo[4,3-h]quinazolin-8-amine hydrochloride] | < 1 | < 1 | –
Cl.Fc1cc(Nc2ncc3ccc4cnn(C5CC5)c4c3n2)ncc1N1CCNCC1 [Compound I-54] | 20 to 50 | 10 to 20 | about 2 times
Cc1cc2cnc(Nc3ccc(N4CCNCC4)cn3)nc2c2c1cnn2C(C)C.Cl [Compound I-66] | 10 to 20 | 1 to 5 | about 3 times
CCN1CCN(c2ccc(Nc3ncc4cc(C(C)=O)c5cnn(C(C)C)c5c4n3)nc2)CC1 [Compound I-78] | 1 to 5 | < 1 | –
Cc1cc(Nc2ncc3ccc4cnn(C5CC5)c4c3n2)ncc1N1CCOCC1 [Compound I-59] | 10 to 20 | 10 to 20 | –
CC(C)n1ncc2c(C#N)cc3cnc(Nc4ccc(N5CCNCC5)cn4)nc3c21.Cl [Compound I-71] | 10 to 20 | 1 to 5 | about 3 times
CC(C)n1ncc2ccc3cnc(Nc4ccc(N5CCC6(CC5)CNC6)cn4)nc3c21 [Compound I-25] | 1 to 5 | 1 to 5 | –
CC(C)n1ncc2c(Br)cc3cnc(Nc4cc(F)c(N5CCNCC5)cn4)nc3c21.Cl [Compound I-62] | 20 to 50 | 10 to 20 | about 2 times
CCn1ncc2ccc3cnc(Nc4ccc(N5CCOCC5)cn4)nc3c21 [Compound I-50] | 10 to 20 | 5 to 10 | about 3 times
CC1CN(c2ccc(Nc3ncc4ccc5cnn(C6CC6)c5c4n3)nc2)CCO1 (stereo not drawn) [Compound I-60] | 10 to 20 | 10 to 20 | –
Cc1cc(Nc2ncc3ccc4cnn(C(C)C)c4c3n2)ncc1N1CCOCC1 [Compound I-19] | 20 to 50 | 10 to 20 | –
COc1cc(OC)cc(-c2cc3cnc(Nc4ccc(N5CCNCC5)cn4)nc3c3c2cnn3C(C)C)c1.Cl [Compound I-80] | 5 to 10 | 1 to 5 | about 3 times
CC(C)n1ncc2c(Br)cc3cnc(Nc4ccc(N5CCN(C)CC5)cn4)nc3c21 [Compound I-63] | 10 to 20 | 10 to 20 | –
CN1CCN(c2ccc(Nc3ncc4ccc5cnn(C6CCCC6)c5c4n3)nc2)CC1 [Compound I-38] | 1 to 5 | 5 to 10 | –
c1cc(Nc2ncc3ccc4cnn(C5CCCC5)c4c3n2)ncc1N1CCNCC1 [Compound I-35] | 1 to 5 | 1 to 5 | –
CCN1CCN(c2ccc(Nc3ncc4cc(-c5cc(OC)cc(OC)c5)c5cnn(C(C)C)c5c4n3)nc2)CC1 [Compound I-81] | 5 to 10 | 1 to 5 | about 3 times
CCN1CCN(c2cnc(Nc3ncc4ccc5cnn(C6CCCC6)c5c4n3)cc2C)CC1 [Compound I-41] | 10 to 20 | 10 to 20 | –
CCN1CCN(c2ccc(Nc3ncc4ccc5cnn(C(C)C)c5c4n3)nc2)CC1 [Compound I-7] | 1 to 5 | 1 to 5 | –

Structure (SMILES) | IC50 [1] [nM] | IC50 (CDK6/cyclin D1) [nM] | selectivity for CDK6/cyclin D1 relative to CDK4/cyclin D1 (enzyme inhibitory activity) (CDK6/cyclin D1)
CC(=O)c1cc2cnc(Nc3ccc(N4CCOCC4)cn3)nc2c2c1cnn2C(C)C [Compound I-79] | 5 to 10 | < 1 | –
CC(=O)c1cc2cnc(Nc3ccc(N4CCN(C)CC4)cn3)nc2c2c1cnn2C(C)C [Compound I-77] | 5 to 10 | < 1 | –
CC(C)n1ncc2ccc3cnc(Nc4ccc(N5CCN(C)CC5)cn4)nc3c21 [Compound I-4] | 1 to 5 | 1 to 5 | –
Cc1cc(Nc2ncc3ccc4cnn(C(C)C)c4c3n2)ncc1N1CCOC(C)C1 (stereo not drawn) [Compound I-20] | 20 to 50 | 20 to 50 | –
Cc1cc2cnc(Nc3ccc(N4CCN(C)CC4)cn3)nc2c2c1cnn2C(C)C [Compound I-68] | 10 to 20 | 1 to 5 | –
Cc1nc(Nc2ncc3ccc4cnn(C(C)C)c4c3n2)ccc1N1CCOCC1 [Compound I-18] | 1 to 5 | < 1 | –
Cc1cc(Nc2ncc3ccc4cnn(C(C)C)c4c3n2)ncc1N1CCS(=O)(=O)CC1 [Compound I-29] | 20 to 50 | 20 to 50 | –
CC(C)n1ncc2ccc3cnc(Nc4ccc(N5CCC(N(C)C)CC5)cn4)nc3c21 [Compound I-24] | 20 to 50 | 20 to 50 | –
Cc1cc(Nc2ncc3ccc4cnn(C(C)C)c4c3n2)ncc1N1CCNCC1 [Compound I-3] | 5 to 10 | 10 to 20 | –
Cc1nc(Nc2ncc3ccc4cnn(C5CCCC5)c4c3n2)ccc1N1CCOCC1 [Compound I-43] | 1 to 5 | 1 to 5 | –
CCN1CCN(c2ccc(Nc3ncc4cc(C)c5cnn(C(C)C)c5c4n3)nc2)CC1 [Compound I-69] | 10 to 20 | 1 to 5 | –
c1cc(Nc2ncc3ccc4cnn(C5CCCC5)c4c3n2)ncc1N1CCOCC1 [Compound I-42] | 1 to 5 | 1 to 5 | –
CCN1CCN(c2ccc(Nc3ncc4ccc5cnn(C(C)C)c5c4n3)nc2C)CC1 [Compound I-9] | 1 to 5 | < 1 | –
CC(C)n1ncc2ccc3cnc(Nc4ccc(N5CCN[C@@H](C)C5)cn4)nc3c21 [Compound I-12] | 5 to 10 | 5 to 10 | –
CCN1CCN(c2ccc(Nc3ncc4ccc5cnn(CC)c5c4n3)nc2)CC1 [Compound I-48] | 10 to 20 | 5 to 10 | about 3 times
CC(C)n1ncc2ccc3cnc(Nc4ccc(N5CCNC(C)(C)C5)cn4)nc3c21 [Compound I-14] | 10 to 20 | 10 to 20 | –
Cc1nc(Nc2ncc3ccc4cnn(C(C)C)c4c3n2)ccc1N1CCOC(C)C1 (stereo not drawn) [Compound I-21] | 5 to 10 | 10 to 20 | –
CC(C)n1ncc2ccc3cnc(Nc4ccc(N5CCOCC5)cn4)nc3c21 [Compound I-15] | 1 to 5 | 1 to 5 | –
CCN1CCN(c2ccc(Nc3ncc4ccc5cnn(C6CCCC6)c5c4n3)nc2C)CC1 [Compound I-40] | 1 to 5 | 1 to 5 | –
CCn1ncc2ccc3cnc(Nc4ccc(N5CCNCC5)c(F)n4)nc3c21.Cl [Compound I-47] | 10 to 20 | 5 to 10 | about 2 times
Cc1nc(Nc2ncc3ccc4cnn(C5CCCC5)c4c3n2)ccc1N1CCNCC1 [Compound I-37] | 1 to 5 | < 1 | –
CC(C)n1ncc2c(C#N)cc3cnc(Nc4cc(F)c(N5CCNCC5)cn4)nc3c21.Cl [Compound I-72] | 20 to 50 | 10 to 20 | about 2 times
CC(=O)c1cc2cnc(Nc3ccc(N4CCNCC4)cn3)nc2c2c1cnn2C(C)C [Compound I-75] | 1 to 5 | < 1 | –
Cc1cc(Nc2ncc3ccc4cnn(C5CCCC5)c4c3n2)ncc1N1CCOCC1 [Compound I-44] | 10 to 20 | 10 to 20 | –
CCN1CCN(c2cnc(Nc3ncc4ccc5cnn(C6CC6)c5c4n3)cc2C)CC1 [Compound I-57] | 10 to 20 | 10 to 20 | –
Cc1nc(Nc2ncc3ccc4cnn(C(C)C)c4c3n2)ccc1N1CCN(C)CC1 [Compound I-6] | 1 to 5 | < 1 | –
CC(C)n1ncc2ccc3cnc(N4CCC[C@@H]4c4cc(F)ccc4F)nc3c21 [Compound I-34] | 50 to 100 | 50 to 100 | –
